Source: patent publication US12213485B2, “Synergistic methods of using benzoxaborole compounds and preservative gases as an antimicrobial for crops” (AGROFRESH INC., priority 2016, dated 2025)

Tests used:
[1] = test system: Aspergillus brasiliensis (ASPEBR); test: In vitro fungal growth on inoculated agar plates, benzoxaborole and CO2 chamber treatment; format: cell-based
Excerpt: (§1) The following experiments were used to determine synergy between benzoxaborole Compounds A, B, and/or C and preservative gases, such as carbon dioxide (CO2) and sulfur dioxide (SO2). Specific rates or any other unique conditions are noted within the corresponding results tables. Each experiment comprised an air-tight 36 liter (L) chamber (Fisher Scientific, P/N: 08-642-23C), fitted with a bulkhead septum port (Swagelok, P/N: SS-400-61, Solon, OH) used for treatment delivery, as well as for monitoring (using needle extraction) carbon dioxide (CO2), sulfur dioxide (SO2), oxygen (O2) or other headspace samples. A variable speed fan (Thermaltake, Mobile Fan II, P/N: A1888, Taipei City, Taiwan) set to low was also used to circulate the headspace atmosphere.
(§2) In vitro and in vivo experiments were performed concurrently in triple replicates (i.e., triplicate) unless otherwise noted. For in vitro experiments, a single 6-well microtiter plate or three, 10-cm petri plates each containing half strength Potato Dextrose Agar were prepared. Each well or plate was inoculated with 1 microliter (μL) of 1×10^5 spores/ml of the appropriate pathogenic spore suspension (e.g., Botrytis cinerea, BOTRCI; Penicillium expansum, PENIEX; Mucor piriformis, MUCOPI; Fusarium sambucinum FUSASA; or Aspergillus brasiliensis, ASPEBR). The inoculated microtiter or petri plates were then sealed with a breathable film (AeraSeal; P/N: B-100, Excel Scientific, Victorville, CA).
(§3) For treatment, the inoculated agar plates and clamshells containing fruits (e.g., strawberries and grapes) were placed inside a 36 L experimental chamber unit, which was then sealed prior to commencement of compound treatments. The chamber remained sealed throughout the duration of the experiment except for addition of treatment to the chamber, and post-treatment ventilation.
(§4) Benzoxaborole Compound A or Compound B was dissolved in acetone and dispensed onto a 60 mm Whatman #1 filter paper disk using a pipette. The acetone was permitted to evaporate for five minutes before the disk was placed on a watch glass in each chamber.
(§5) A 12% CO2 headspace treatment was then established in the chamber by permitting 10 grams (g) of crushed dry ice placed in a weigh boat in the chamber to evaporate in the sealed chamber. However, the bulkhead port of the chamber was loosened to permit the release of internal pressure. Optionally, a fan was used during the initial hours of treatment (i.e., up to about 6 hours of treatment) to ensure uniform treatment exposure of fruits and plates.
(§6) Untreated controls and CO2 treated chambers contained an acetone-treated disk with similar evaporation for five minutes. CO2 and O2 levels in the chamber were monitored using a handheld gas detector (Dansensor Checkpoint II; P/N 600111, Ringsted, Denmark). Temperature and relative humidity were also monitored within the chamber using data loggers (Onset HOBO; P/N U12-013, Bourne, MA).
(§7) The chamber for all in vitro and in vivo experiments was held at room temperature (i.e., from about 21° C. to about 23° C.) typically for about 3.5 days (i.e., about 84 hours) of treatment exposure. Chambers were then vented. After an additional 2-3 days with the chamber at room temperature, post-treatment radial growth (in mm) of each in vitro pathogen (see Examples 1-7, Tables 1-7) was measured on the inoculated plates using electronic calipers (Mitutoyo, P/N: CD-6-CX, Aurora, IL). In addition, the point of inoculation on fruits was assessed for indication of in vivo disease incidence (e.g., yes or no) and severity of disease incidence (see Examples 8-16, Tables 8-16). Disease severity was rated on a scale ranging from 0 to 4, where “0” indicated no disease severity, “1” indicated minimal disease severity, “2” indicated medium disease severity, “3” indicated high disease severity, and “4” indicated exceptionally high disease severity. […]

[2] = test system: Penicillium expansum (PENIEX); test: as above; format: cell-based
Excerpt: as §1, §2, §3, §4, §5, §6, §7

[3] = test system: Mucor piriformis (MUCOPI); test: as above; format: cell-based; details: Table 3, 12% CO2 alone, evaluated 2 days after treatment, 6-well microtiter plate, fan first 6 hours, >90% R.H.
Excerpt: as §1, §2, §3, §4, §5, §6, §7

[4] = test system: Fusarium sambucinum (FUSASA); test: as above; format: cell-based
Excerpt: as §1, §2, §3, §4, §5, §6, §7

[5] = test system: Botrytis cinerea (BOTRCI); test: as above; format: cell-based
Excerpt: as §1, §2, §3, §4, §5, §6, §7

[6] = test system: Botrytis cinerea (BOTRCI) on table grapes; test: In vivo disease severity on wound-inoculated table grapes, benzoxaborole and CO2 chamber treatment; details: Table 15, 12% CO2 alone, evaluated 1 day after treatment, fan continuous
Excerpt: as §1
(§8) Similarly, table grape fruits were also tested in vivo. More specifically, 16-20 table grapes per repetition were washed and inoculated with pathogens (as described above for the strawberries). However, an ethanol-sterilized push pin, rather than a T15 screwdriver, was used to wound the stem-end of the grapes. The grapes were inoculated in the wound, and then arranged inside a 1-pint clamshell.
as §3, §4, §5, §6, §7

[7] = test system: Penicillium expansum (PENIEX) on table grapes; test: as above; details: Table 16, 12% CO2 alone, evaluated 1 day after treatment, fan continuous
Excerpt: as §1, §8, §3, §4, §5, §6, §7

[8] = test system: Mucor piriformis (MUCOPI) on strawberries; test: In vivo disease severity on wound-inoculated strawberries, benzoxaborole and CO2 chamber treatment; details: Table 10, 12% CO2 alone, evaluated 2 days after treatment, fan first 6 hours, >90% R.H.
Excerpt: as §1
(§9) For in vivo experiments, eight strawberry fruits per repetition were surface sterilized with a 70% ethanol solution. After sterilization, the strawberries were rinsed twice with deionized water. Each strawberry fruit was wounded using a T15 screwdriver tip to a uniform depth of eight mm (8 mm). Each fruit wound was inoculated with 20 μL of 1×10^5 spores/ml pathogen spore suspension of B. cinerea or M. piriformis. The strawberries were then placed with the stem facing downwards inside a 1-pound strawberry clamshell.
as §3, §4, §5, §6, §7

[9] = test system: Botrytis cinerea (BOTRCI) on strawberries; test: as above
Excerpt: as §1, §9, §3, §4, §5, §6, §7

[10] = Table 5, 12% CO2 alone, evaluated 2 days after treatment, 6-well plate, fan first 6 hours, >90% R.H.
[11] = Table 1, 12% CO2 alone, evaluated 2 days after treatment completion, 6-well microtiter plate, 4 replicates, fan first 6 hours
[12] = Table 4, 12% CO2 alone, evaluated 2 days after treatment completion, 6-well microtiter plate, fan first 6 hours
[13] = Table 5, compound 0.14 mg/L + 12% CO2, Colby equation E=x+y−x*y/100
[14] = Table 5, compound 0.14 mg/L + 12% CO2, evaluated 2 days after treatment, 6-well plate, fan first 6 hours, >90% R.H.
[15] = Table 5, compound alone 0.14 mg/L, evaluated 2 days after treatment, 6-well plate, fan first 6 hours, >90% R.H.

For O=C=O [CO2, carbon dioxide], the “Growth (diameter, mm) 12% CO2” value [1, 10] was 26.2 mm, the “Growth (diameter, mm) 12% CO2” value [2, 11] was 18.6 mm and the “Growth (diameter, mm) 12% CO2” value ([2]; Table 2, 12% CO2 alone, evaluated 2 days after treatment, 6-well microtiter plate, fan first 6 hours, >90% R.H.) was 21.3 mm. The “Growth (diameter, mm) 12% CO2” value [2, 12] was 21.2 mm, the “Growth (diameter, mm) 12% CO2” value [2, 10] was 19.9 mm and the “Growth (diameter, mm) 12% CO2” value ([2]; Table 7, 12% CO2 alone, evaluated 3 days after treatment, 10 cm Petri plates, fan continuous) was 25.8 mm. The “Growth (diameter, mm) 12% CO2” value [3] was 35.0 mm, the “Growth (diameter, mm) 12% CO2” value [4, 10] was 33.9 mm and the “Growth (diameter, mm) 12% CO2” value [5, 11] was 28.0 mm. The “Growth (diameter, mm) 12% CO2” value ([5]; Table 3, 12% CO2 alone, evaluated 2 days after treatment, 6-well microtiter plate, fan first 6 hours, >90% R.H.) was 30.9 mm, the “Growth (diameter, mm) 12% CO2” value [5, 12] was 33.4 mm and the “Growth (diameter, mm) 12% CO2” value [5, 10] was 35.0 mm. For the same compound, the “Growth (diameter, mm) 12% CO2” value ([5]; Table 6, 12% CO2 alone, evaluated 3 days after treatment, 10 cm petri plates, fan continuous) was 78.9 mm, the “Growth (Severity, 0 to 4) 12% CO2” value [6] was 1.4 and the “Growth (Severity, 0 to 4) 12% CO2” value [7] was 1.9. The “Growth (Severity, 0 to 4) 12% CO2” value [8] was 3.0, the “Growth (Severity, 0 to 4) 12% CO2” value ([9]; Table 8, 12% CO2 alone, evaluated 2 days after treatment, 4 replicates, fan first 6 hours, >90% R.H.) was 3.7 and the “Growth (Severity, 0 to 4) 12% CO2” value ([9]; Table 9, 12% CO2 alone, evaluated 3 days after treatment, fan first 6 hours, >90% R.H.) was 3.5. The “Growth (Severity, 0 to 4) 12% CO2” value ([9]; Table 11, 12% CO2 alone, evaluated 2 days after treatment, fan first 6 hours, >90% R.H.) was 2.7, the “Growth (Severity, 0 to 4) 12% CO2” value ([9]; Table 12, 12% CO2 alone, evaluated 2 days after treatment, fan first 6 hours, >90% R.H.) was 3.4 and the “Growth (Severity, 0 to 4) 12% CO2” value ([9]; Table 13, 12% CO2 alone, evaluated 3 days after treatment, fan run continuously) was 3.2. For the same compound, the “Growth (Severity, 0 to 4) 12% CO2” value ([9]; Table 14, 12% CO2 alone, evaluated 3 days after treatment, fan continuous) was 3.9.
In the case of Fc1ccc2c(c1)COB2OCCOB1OCc2cc(F)ccc21 [Compound B], the “Colby Calculation” value [1, 13] is reported as 112.0, the “Growth (diameter, mm) Cmpd + 12% CO2” value [1, 14] is reported as 0.0 mm and the “Growth (diameter, mm) Cmpd” value [1, 15] is reported as 3.6 mm. For the same compound, the “Colby Calculation” value [2, 13] was 102.4, the “Growth (diameter, mm) Cmpd + 12% CO2” value [2, 14] was 6.4 mm and the “Growth (diameter, mm) Cmpd” value [2, 15] was 7.7 mm. For the same compound, the “Colby Calculation” value [4, 13] was 100.4, the “Growth (diameter, mm) Cmpd + 12% CO2” value [4, 14] was 3.4 mm and the “Growth (diameter, mm) Cmpd” value [4, 15] was 3.6 mm. The “Colby Calculation” value [5, 13] was 103.4, the “Growth (diameter, mm) Cmpd + 12% CO2” value [5, 14] was 2.7 mm and the “Growth (diameter, mm) Cmpd” value [5, 15] was 3.5 mm. The “Colby Calculation” value ([9]; Table 11, compound 0.14 mg/L + 12% CO2, Colby equation E=x+y−x*y/100) was 105.0, the “Growth (Severity, 0 to 4) Cmpd + 12% CO2” value ([9]; Table 11, compound 0.14 mg/L + 12% CO2, evaluated 2 days after treatment, fan first 6 hours, >90% R.H.) was 0.5 and the “Growth (Severity, 0 to 4) Cmpd” value ([9]; Table 11, compound alone 0.14 mg/L, evaluated 2 days after treatment, fan first 6 hours, >90% R.H.) was 0.9. For the same compound, the “Colby Calculation” value ([9]; Table 12, compound 0.14 mg/L + 12% CO2, Colby equation E=x+y−x*y/100) was 100.9, the “Growth (Severity, 0 to 4) Cmpd + 12% CO2” value ([9]; Table 12, compound 0.14 mg/L + 12% CO2, evaluated 2 days after treatment, fan first 6 hours, >90% R.H.) was 0.3 and the “Growth (Severity, 0 to 4) Cmpd” value ([9]; Table 12, compound alone 0.14 mg/L, evaluated 2 days after treatment, fan first 6 hours, >90% R.H.) was 0.4.
